Assays:
[1] = intravenous (IV) formulation; cited from earlier work
human RXFP1 = molecular target: T1, human RXFP1 (Homo sapiens, UniProt Q9HBX9); test: RXFP1 cAMP assay (hRXFP1 HEK293 cAMP assay, HTRF); format: cell-based; conditions: HEK293 cells stably expressing human RXFP1, 30 min at room temperature, read-out: cAMP hRXFP1 HEK293 Assay EC50
T1 construct: expressed in transfected cells
T1 sequence (Q9HBX9 1-757): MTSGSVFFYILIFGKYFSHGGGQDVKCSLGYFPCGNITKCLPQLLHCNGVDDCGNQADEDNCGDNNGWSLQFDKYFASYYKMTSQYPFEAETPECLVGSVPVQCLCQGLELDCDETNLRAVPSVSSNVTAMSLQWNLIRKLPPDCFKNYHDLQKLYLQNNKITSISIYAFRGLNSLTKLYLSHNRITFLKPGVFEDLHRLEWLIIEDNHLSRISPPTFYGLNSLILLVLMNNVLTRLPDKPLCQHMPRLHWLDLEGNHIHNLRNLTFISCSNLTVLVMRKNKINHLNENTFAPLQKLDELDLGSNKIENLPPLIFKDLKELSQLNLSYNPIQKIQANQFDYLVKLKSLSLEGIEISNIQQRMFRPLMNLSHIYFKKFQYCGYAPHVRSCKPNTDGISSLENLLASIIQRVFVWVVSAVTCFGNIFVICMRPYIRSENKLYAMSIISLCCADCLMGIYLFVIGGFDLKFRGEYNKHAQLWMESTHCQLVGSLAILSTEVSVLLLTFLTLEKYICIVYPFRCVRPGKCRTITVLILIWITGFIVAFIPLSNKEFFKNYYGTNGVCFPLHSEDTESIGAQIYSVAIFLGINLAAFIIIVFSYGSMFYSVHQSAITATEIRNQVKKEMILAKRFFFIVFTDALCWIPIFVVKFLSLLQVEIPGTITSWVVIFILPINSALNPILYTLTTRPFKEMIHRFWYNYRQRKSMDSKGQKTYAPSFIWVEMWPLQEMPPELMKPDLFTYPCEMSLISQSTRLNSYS
In short: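 Intracellular cAMP was read by HTRF, with potency fitted to a 4-parameter logistic curve. Compound exposure (0.010 nM–50 μM final, 2% DMSO) lasted 30 min at room temperature. Cells were hRXFP1-HEK293 at 1500 per well in IBMX-containing (0.5 mM) HEPES-buffered HBSS.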

Molecule	EC50 (human RXFP1) [nM]	first-phase pharmacokinetic half-life [1] [min]
Serelaxin	–	5.4
COc1cc(F)c(F)cc1C(=O)N[C@@H]1C2CCC(/C2=C/c2cccc(C(F)(F)F)c2)[C@@H]1C(=O)Nc1ccc(F)c(C(F)(F)F)c1 (stereo partly drawn) [compound 25]	200	–
CCOC(=O)c1c(-c2ccc(F)cc2)[nH]c2ccc(-c3ccc(OC)c(C(=O)N[C@@H]4C5CCC(/C5=C/C(F)(F)F)[C@@H]4C(=O)Nc4ccc(F)c(C(F)(F)F)c4)c3)cc12 (stereo partly drawn) [compound 298]	70	–
CCCC/C=C1\C2CCC1[C@H](C(=O)Nc1ccc(F)c(C(F)(F)F)c1)[C@@H]2NC(=O)c1cc(C2=NOC(CC(=O)O)C2)ccc1OC (stereo partly drawn) [compound 395]	104	–
COc1ccc(N2CC[C@H](O)C2=O)cc1C(=O)N[C@H]1[C@@H](C(=O)Nc2ccc(F)c(C(F)(F)F)c2)[C@H]2CC[C@@H]1/C2=C\C1CC1 [compound 627]	176	–
COc1ccc(C2=NOC3COCC23)cc1C(=O)N[C@H]1[C@@H](C(=O)NCCc2cccc(C)c2)[C@H]2CC[C@@H]1/C2=C\C1CC1 (stereo partly drawn) [compound 650]	262	–
CCOC(=O)/C=C1\C2CCC1[C@H](C(=O)Nc1ccc(F)c(C(F)(F)F)c1)[C@@H]2NC(=O)c1cc(F)c(F)cc1OC (stereo partly drawn) [compound 7]	270	–
O=C(O)c1ccc(F)c(-c2ccc(OCCN3CCOCC3)c(C(=O)N[C@H]3[C@@H](C(=O)Nc4ccc(F)c(C(F)(F)F)c4)[C@H]4CC[C@@H]3/C4=C\C(F)(F)F)c2)c1 [Example 320, 6-fluoro-3′-(((1R,2R,3S,4R,Z)-3-((4-fluoro-3-(trifluoromethyl)phenyl)carbamoyl)-7-(2,2,2-trifluoroethylidene)bicyclo[2.2.1]heptan-2-yl)carbamoyl)-4′-(2-morpholinoethoxy)-[1,1′-biphenyl]-3-carboxylic acid]	1950	–
CCO/N=C1\C2CCC1[C@H](C(=O)Nc1ccc(F)c(C(F)(F)F)c1)[C@@H]2NC(=O)c1cc(-c2cc(C(=O)O)ccc2F)ccc1OC (stereo partly drawn) [Example 130]	440	–
COc1cc(F)c(F)cc1C(=O)N[C@@H]1C2CCC(/C2=C/Cc2ccccc2)[C@@H]1C(=O)Nc1ccc(F)c(C(F)(F)F)c1 (stereo partly drawn) [compound 57]	550	–
COc1ccc(C2=NOC3COCC23)cc1C(=O)N[C@H]1[C@@H](C(=O)NCc2ccc(Cl)cc2Cl)[C@H]2CC[C@@H]1/C2=C\C1CC1 (stereo partly drawn) [compound 646]	240	–
CCOC(=O)c1cc2cc(-c3ccc(OC)c(C(=O)N[C@@H]4C5CCC(/C5=C/C(F)(F)F)[C@@H]4C(=O)Nc4ccc(F)c(C(F)(F)F)c4)c3)ccc2[nH]1 (stereo partly drawn) [compound 297]	73	–

Further molecules by falling EC50 (human RXFP1), results first:

EC50 (human RXFP1) [nM]	Molecule	first-phase pharmacokinetic half-life [1] [min]
59	CCC/C=C/C=C1\C2CCC1[C@H](C(=O)Nc1ccc(F)c(C(F)(F)F)c1)[C@@H]2NC(=O)c1cc(F)c(F)cc1OC (stereo partly drawn) [compound 45]	–
15	COc1cc(F)c(F)cc1C(=O)N[C@@H]1C2CCC(/C2=C/C=C/CCCc2ccccc2)[C@@H]1C(=O)Nc1ccc(F)c(C(F)(F)F)c1 (stereo partly drawn) [compound 37]	–
5	COc1ccc(-c2cc(C(CO)NC(C)=O)ccc2F)cc1C(=O)N[C@@H]1C2CCC(/C2=C/C2CC2)[C@@H]1C(=O)Nc1ccc(F)c(C(F)(F)F)c1 (stereo partly drawn) [Example 172]	–
3.9	COc1ccc(-c2cc([C@H](OC(=O)NC3CCC3)C(F)(F)F)ccc2F)cc1C(=O)N[C@H]1[C@@H](C(=O)Nc2ccc(F)c(C(F)(F)F)c2)[C@H]2CC[C@@H]1/C2=C\C[C@@H](O)C(F)(F)F [compound 932]	–
3.3	COc1ccc(C2=NO[C@H]3C[C@H](CO)C[C@@H]23)cc1C(=O)N[C@H]1[C@@H](C(=O)Nc2ccc(F)c(C(F)(F)F)c2)[C@H]2CC[C@@H]1/C2=C\C1C[C@@H](F)[C@@H](F)C1 (stereo partly drawn) [compound 828]	–
2.6	COc1ccc(C2=NO[C@H]3C[C@H](CO)C[C@@H]23)cc1C(=O)N[C@H]1[C@@H](C(=O)N[C@H](C)C2(C)CC2)[C@H]2CC[C@@H]1/C2=C\C1CC(F)(F)C1 [compound 823]	–
2.1	O=C(N[C@H]1[C@@H](C(=O)NC23CC(F)(C2)C3)[C@H]2CC[C@@H]1/C2=C\C1CC1)c1cc(C2=NOC3CC(CO)CC23)cc(F)c1OCC1CC1 (stereo partly drawn) [compound 763]	–
1	CNC(=O)OC(c1ccc(F)c(-c2ccc(OC)c(C(=O)N[C@@H]3C4CCC(/C4=C/C4CC4)[C@@H]3C(=O)Nc3ccc(F)c(C(F)(F)F)c3)c2)c1)C(F)(F)F (stereo partly drawn) [compound 212]	–
0.9	COc1ccc(-c2cc(S(=O)(=O)NC(C)(C)C)ccc2F)cc1C(=O)N[C@H]1[C@@H](C(=O)Nc2ccc(F)c(C(F)(F)F)c2)[C@H]2CC[C@@H]1/C2=C\C1CCCC1 [compound 958]	–

Source: patent publication US20250221966A1, “RXFP1 AGONISTS” (BRISTOL-MYERS SQUIBB COMPANY, priority 2021, published 2025)
